In US7125679B2, “Methods to screen peptide libraries using minicell display” (Children's Medical Center Corporation, priority 2001, dated 2006):

Assays:
alpha4 integrin = target: T1, alpha4 integrin (Homo sapiens, UniProt P13612); experiment: alpha4 integrin binding
T1 sequence (P13612 34-1032): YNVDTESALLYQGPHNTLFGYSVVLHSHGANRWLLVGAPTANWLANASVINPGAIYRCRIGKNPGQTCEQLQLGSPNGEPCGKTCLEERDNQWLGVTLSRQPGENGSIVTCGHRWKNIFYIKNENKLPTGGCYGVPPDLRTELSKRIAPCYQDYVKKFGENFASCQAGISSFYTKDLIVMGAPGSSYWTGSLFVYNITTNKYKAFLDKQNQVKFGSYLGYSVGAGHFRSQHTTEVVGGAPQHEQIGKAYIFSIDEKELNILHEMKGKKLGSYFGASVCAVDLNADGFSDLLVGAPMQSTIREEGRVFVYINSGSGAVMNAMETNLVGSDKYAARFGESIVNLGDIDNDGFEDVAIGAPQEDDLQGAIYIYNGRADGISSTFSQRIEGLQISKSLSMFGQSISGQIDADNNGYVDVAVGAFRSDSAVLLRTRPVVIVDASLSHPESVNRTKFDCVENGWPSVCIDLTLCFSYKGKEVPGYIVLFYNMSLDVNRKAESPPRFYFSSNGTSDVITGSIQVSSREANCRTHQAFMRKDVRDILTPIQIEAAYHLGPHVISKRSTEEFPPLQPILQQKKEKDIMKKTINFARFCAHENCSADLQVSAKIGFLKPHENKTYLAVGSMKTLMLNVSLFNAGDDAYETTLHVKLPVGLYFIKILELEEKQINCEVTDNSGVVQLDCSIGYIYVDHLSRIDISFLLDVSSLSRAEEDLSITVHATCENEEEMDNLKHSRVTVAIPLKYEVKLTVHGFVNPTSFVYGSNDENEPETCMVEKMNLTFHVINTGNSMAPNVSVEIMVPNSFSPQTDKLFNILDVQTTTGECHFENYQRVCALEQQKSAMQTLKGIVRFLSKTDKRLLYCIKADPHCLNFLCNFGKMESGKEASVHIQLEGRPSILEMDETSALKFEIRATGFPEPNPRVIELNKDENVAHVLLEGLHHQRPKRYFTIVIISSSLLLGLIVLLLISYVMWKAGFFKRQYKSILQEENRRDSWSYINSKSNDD

angiogenesis = experiment: Anti-angiogenic activity
cell entry of peptides = experiment: Cell entry of peptides; assay type: cell-based
tumor cells [1] = experiment: Apoptosis of tumor cells; assay type: cell-based
Text: Many cells may undergo programmed cell death which is a genetically mediated form of self destruction. This phenomenon is commonly referred to in the art as apoptosis. Frequently, apoptotic cells may be recognized by changes in their biochemical, morphological and molecular features. Morphological changes include, but are not limited to, cell shape change, cell shrinkage, cell detachment, apoptotic bodies, nuclear fragmentation, nuclear envelope changes and loss of cell surface structures. Biochemical changes may include proteolysis, protein cross linking, DNA denaturation, cell dehydration, intranucleosomal cleavage and a rise in free calcium ions. Such characteristics are easily identifiable by methods well established in the art. Peptides isolated by the disclosed mini-cell display method are tested for their effects on such physiological and biochemical processes.

β3 = target: T2, β3 (Homo sapiens, UniProt P05106); experiment: β3 attachment; assay type: cell-based
T2 sequence (P05106 27-788): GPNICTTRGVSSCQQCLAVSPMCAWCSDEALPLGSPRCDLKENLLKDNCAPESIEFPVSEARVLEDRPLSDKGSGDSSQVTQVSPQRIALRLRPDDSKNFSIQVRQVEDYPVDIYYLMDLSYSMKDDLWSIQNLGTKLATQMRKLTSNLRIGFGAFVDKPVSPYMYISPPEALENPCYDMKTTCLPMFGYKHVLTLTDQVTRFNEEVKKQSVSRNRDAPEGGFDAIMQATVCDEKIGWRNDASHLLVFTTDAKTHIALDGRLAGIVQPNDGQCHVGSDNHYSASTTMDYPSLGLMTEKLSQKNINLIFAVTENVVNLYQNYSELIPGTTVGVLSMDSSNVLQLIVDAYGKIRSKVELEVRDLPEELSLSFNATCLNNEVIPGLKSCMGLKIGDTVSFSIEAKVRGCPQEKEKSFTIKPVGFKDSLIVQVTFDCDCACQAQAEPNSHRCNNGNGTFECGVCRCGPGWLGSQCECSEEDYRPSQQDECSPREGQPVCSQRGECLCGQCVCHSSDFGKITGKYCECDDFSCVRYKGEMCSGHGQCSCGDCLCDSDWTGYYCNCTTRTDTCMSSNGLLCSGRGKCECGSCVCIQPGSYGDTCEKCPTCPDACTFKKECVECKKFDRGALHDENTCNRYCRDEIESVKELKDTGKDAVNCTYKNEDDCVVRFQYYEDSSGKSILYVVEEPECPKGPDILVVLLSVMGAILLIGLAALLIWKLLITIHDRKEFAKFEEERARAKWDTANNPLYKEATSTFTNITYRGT

melanoma cell = experiment: Melanoma cell attachment; assay type: cell-based
collagenase = experiment: Collagenase induction; assay type: cell-based
Fibronectin receptor = Fibronectin receptor (Homo sapiens, UniProt P05556+P08648); experiment: Fibronectin receptor binding
Fibronectin receptor, sequence (P08648 42-894 limits assumed): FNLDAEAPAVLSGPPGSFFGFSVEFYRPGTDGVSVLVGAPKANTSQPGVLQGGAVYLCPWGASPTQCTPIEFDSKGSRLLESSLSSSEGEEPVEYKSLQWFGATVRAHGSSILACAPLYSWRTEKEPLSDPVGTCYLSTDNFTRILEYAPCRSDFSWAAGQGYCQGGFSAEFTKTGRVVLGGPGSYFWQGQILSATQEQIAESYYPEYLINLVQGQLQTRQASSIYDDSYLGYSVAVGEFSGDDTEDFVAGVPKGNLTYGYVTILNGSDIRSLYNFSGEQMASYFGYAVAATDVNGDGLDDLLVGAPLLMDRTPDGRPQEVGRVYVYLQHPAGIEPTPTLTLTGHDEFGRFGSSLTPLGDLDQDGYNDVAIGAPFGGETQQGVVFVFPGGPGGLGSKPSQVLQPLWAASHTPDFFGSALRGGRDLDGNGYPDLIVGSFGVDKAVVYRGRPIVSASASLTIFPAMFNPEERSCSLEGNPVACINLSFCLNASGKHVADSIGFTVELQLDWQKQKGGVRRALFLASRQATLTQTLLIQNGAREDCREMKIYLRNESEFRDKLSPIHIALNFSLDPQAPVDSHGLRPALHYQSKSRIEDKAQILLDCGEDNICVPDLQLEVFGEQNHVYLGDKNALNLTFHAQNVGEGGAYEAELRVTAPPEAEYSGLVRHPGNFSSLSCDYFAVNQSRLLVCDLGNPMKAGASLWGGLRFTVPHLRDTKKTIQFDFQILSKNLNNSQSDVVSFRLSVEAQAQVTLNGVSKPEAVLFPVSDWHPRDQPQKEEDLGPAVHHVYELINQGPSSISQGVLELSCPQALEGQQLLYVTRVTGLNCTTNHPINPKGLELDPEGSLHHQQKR
Fibronectin receptor, sequence (P08648 895-1049 limits assumed): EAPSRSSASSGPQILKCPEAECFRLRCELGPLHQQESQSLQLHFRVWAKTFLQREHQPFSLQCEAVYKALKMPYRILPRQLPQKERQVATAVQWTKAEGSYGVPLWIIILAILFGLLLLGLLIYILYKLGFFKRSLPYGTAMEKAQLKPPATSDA
Fibronectin receptor, sequence (P05556 21-798): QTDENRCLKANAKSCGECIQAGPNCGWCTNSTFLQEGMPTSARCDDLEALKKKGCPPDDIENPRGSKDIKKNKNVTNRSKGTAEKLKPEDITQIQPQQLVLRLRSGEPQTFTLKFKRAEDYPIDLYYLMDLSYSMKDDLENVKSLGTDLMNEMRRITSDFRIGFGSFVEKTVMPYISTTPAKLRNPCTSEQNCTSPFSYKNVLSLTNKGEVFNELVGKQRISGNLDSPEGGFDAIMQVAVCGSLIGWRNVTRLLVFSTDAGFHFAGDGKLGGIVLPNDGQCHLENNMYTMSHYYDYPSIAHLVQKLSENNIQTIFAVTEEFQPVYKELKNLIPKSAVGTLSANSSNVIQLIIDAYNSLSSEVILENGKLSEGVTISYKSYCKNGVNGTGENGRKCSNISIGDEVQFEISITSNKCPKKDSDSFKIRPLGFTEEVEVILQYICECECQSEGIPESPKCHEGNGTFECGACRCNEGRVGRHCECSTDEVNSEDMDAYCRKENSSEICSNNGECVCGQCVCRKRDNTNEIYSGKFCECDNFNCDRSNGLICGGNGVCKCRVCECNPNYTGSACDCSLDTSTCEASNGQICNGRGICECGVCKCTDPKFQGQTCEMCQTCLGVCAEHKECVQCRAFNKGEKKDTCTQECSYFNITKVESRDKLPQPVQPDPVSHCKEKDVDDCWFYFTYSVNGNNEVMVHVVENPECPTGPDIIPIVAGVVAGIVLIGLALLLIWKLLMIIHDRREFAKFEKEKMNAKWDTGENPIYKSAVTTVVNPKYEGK

tumor cells [2] = experiment: Homotypic aggregation of tumor cells; assay type: cell-based
[3] = system: neutrophils, endothelium, fibrosarcomas melanoma; experiment: Attachment of neutrophils, endothelium, fibrosarcomas, melanoma; assay type: cell-based
cell-cell adhesion = experiment: Cell-cell adhesion; assay type: cell-based
fibroblast = experiment: Fibroblast attachment; assay type: cell-based
Endothelial cell = Endothelial cell attachment; assay type: cell-based
alphavbetax = experiment: Cell attachment, alphavbetax specific; assay type: cell-based
β integrin = β integrin binding

**Q.** With “AADVESPS (Inhibits alpha 4 integrin binding.)” as the substance, how does the “FUNCTIONAL ACTIVITY: Inhibits alpha4 integrin binding” value (alpha4 integrin) read?
**A.** Its value is “Inhibits alpha4 integrin”.

**Q.** With ATWLPPR (Anti-angiogenic.) as the substance, how does the “FUNCTIONAL ACTIVITY: Anti-angiogenic” value (angiogenesis) read?
**A.** The value was “Anti-angiogenic”.

**Q.** Which “FUNCTIONAL ACTIVITY: Promotes cell entry of peptides” value (cell entry of peptides) does the source give for “CVVVLVL (Promotes cell entry of peptides.)” here?
**A.** Its value is “Promotes cell entry of peptides”.

**Q.** Which “FUNCTIONAL ACTIVITY: Apoptotic to tumor cells” value (tumor cells [1]) does the source give for “DGGRGDSLGWYRRGRGGARRSKAKKAAAKNNQKSEPLIGRKKT (Apoptotic to tumor cells.)” here?
**A.** The value was “Apoptotic to tumor cells”.

**Q.** With DKKELAKFQAERSAAS (beta 3 attachment.) as the substance, how does the “FUNCTIONAL ACTIVITY: β3 attachment” value (β3) read?
**A.** Its value is “β3 attachment”.

**Q.** With “DRYLKFRPV (Inhibits melanoma cell attachment.)” as the substance, how does the “FUNCTIONAL ACTIVITY: Inhibits melanoma cell attachment” value (melanoma cell) read?
**A.** The value was “Inhibits melanoma cell”.

**Q.** For “DSVAYGLKSK (Inhibitor of heparin binding.)”, which “FUNCTIONAL ACTIVITY: Inhibits heparin binding” value (Heparin binding) is on record?
**A.** The value was “Inhibits heparin binding”.

**Q.** For “DSVAYGLKSRSK (Inhibitor of heparin binding.)”, which “FUNCTIONAL ACTIVITY: Inhibits heparin binding” value (Heparin binding) is on record?
**A.** The value was “Inhibits heparin binding”.

**Q.** Which “FUNCTIONAL ACTIVITY: Inhibits heparin binding” value (Heparin binding) does the source give for “DSVVYGLRSK (Inhibitor of heparin binding.)” here?
**A.** Its value is “Inhibits heparin binding”.

**Q.** Which “FUNCTIONAL ACTIVITY: Inhibits alpha4 integrin binding” value (alpha4 integrin) does the source give for “EPEESDVGGAADYP (Inhibits alpha 4 integrin binding.)” here?
**A.** Its value is “Inhibits alpha4 integrin”.

**Q.** With “GRGDNPS (Fibronectin receptor binding collagenase induction.)” as the substance, how does the “FUNCTIONAL ACTIVITY: collagenase induction” value (collagenase) read?
**A.** The value was “collagenase induction”.

**Q.** And the “FUNCTIONAL ACTIVITY: Fibronectin receptor binding” value (Fibronectin receptor)?
**A.** The value was “Fibronectin receptor binding”.

**Q.** With HDRKEFAKFEEEERARA (beta 3 attachment.) as the substance, how does the “FUNCTIONAL ACTIVITY: β3 attachment” value (β3) read?
**A.** Its value is “β3 attachment”.

**Q.** For HDRKEVAKFEAERSKA (beta 3 attachment.), which “FUNCTIONAL ACTIVITY: β3 attachment” value (β3) is on record?
**A.** Its value is “β3 attachment”.

**Q.** For HDRREFAKFQSERSRA (beta 3 attachment.), which “FUNCTIONAL ACTIVITY: β3 attachment” value (β3) is on record?
**A.** Its value is “β3 attachment”.

**Q.** With “HGRFILPWWYAFSPS (Inhibits homotypic aggregation of tumor cells.)” as the substance, how does the “FUNCTIONAL ACTIVITY: Inhibit homotypic aggregation of tumor cells” value (tumor cells [2]) read?
**A.** Its value is “Inhibit homotypic aggregation”.

**Q.** For “HKFVHWKKPVLPSQNNQ (Inhibits melanoma cell attachment.)”, which “FUNCTIONAL ACTIVITY: Inhibits melanoma cell attachment” value (melanoma cell) is on record?
**A.** The value was “Inhibits melanoma cell”.

**Q.** With “KGMNYTVR (Inhibits neutrophils, endothelium, fibro- sarcomas, melanoma attachment.)” as the substance, how does the “FUNCTIONAL ACTIVITY: Inhibits, neutrophils, endothelium, fibrosarcomas melanoma attachment” value [3] read?
**A.** The value was “Inhibits, neutrophils,”.

**Q.** With KKAKKSRRS (Anti-adhesion (cell-cell).) as the substance, how does the “FUNCTIONAL ACTIVITY: Anti-adhesion (cell-cell)” value (cell-cell adhesion) read?
**A.** Its value is “Anti-adhesion (cell-cell)”.

**Q.** For KKGKKSKRS (Anti-adhesion (cell-cell).), which “FUNCTIONAL ACTIVITY: Anti-adhesion (cell-cell)” value (cell-cell adhesion) is on record?
**A.** Its value is “Anti-adhesion (cell-cell)”.

**Q.** Which “FUNCTIONAL ACTIVITY: Apoptotic to tumor cells” value (tumor cells [1]) does the source give for “KRSR: bioactive peptide isolated by minicell display (Apoptotic to tumor cells.)” here?
**A.** Its value is “Apoptotic to tumor cells”.

**Q.** For “LDSAS: bioactive peptide isolated by minicell display (Inhibits alpha 4 integrin binding.)”, which “FUNCTIONAL ACTIVITY: Inhibits alpha4 integrin binding” value (alpha4 integrin) is on record?
**A.** Its value is “Inhibits alpha4 integrin”.

**Q.** For “LDSPPAALS (Inhibits alpha 4 integrin binding.)”, which “FUNCTIONAL ACTIVITY: Inhibits alpha4 integrin binding” value (alpha4 integrin) is on record?
**A.** Its value is “Inhibits alpha4 integrin”.

**Q.** For “LVPSSKGRGDYLAQSQP (Fibronectin receptor binding collagenase induction.)”, which “FUNCTIONAL ACTIVITY: collagenase induction” value (collagenase) is on record?
**A.** Its value is “collagenase induction”.

**Q.** What about the “FUNCTIONAL ACTIVITY: Fibronectin receptor binding” value (Fibronectin receptor) of the same substance?
**A.** Its value is “Fibronectin receptor binding”.

**Q.** What does the source list for “PNGRGESLAY (Inhibits fibroblast attachment, inhibits collagenase induction.)”?
**A.** FUNCTIONAL ACTIVITY: Inhibits fibroblast attachment (fibroblast): Inhibits fibroblast attachment,; FUNCTIONAL ACTIVITY: inhibits collagenase induction (collagenase): inhibits collagenase induction

**Q.** With “QESPSGTDLLVAGSSP (Inhibits alpha 4 integrin binding.)” as the substance, how does the “FUNCTIONAL ACTIVITY: Inhibits alpha4 integrin binding” value (alpha4 integrin) read?
**A.** Its value is “Inhibits alpha4 integrin”.

**Q.** Which “FUNCTIONAL ACTIVITY: β3 attachment” value (β3) does the source give for “QSWKKQGSPSSPQRRSKGGRKP (beta 3 attachment.)” here?
**A.** Its value is “β3 attachment”.

**Q.** For QVGLKPLV (Anti-angiogenic.), which “FUNCTIONAL ACTIVITY: Anti-angiogenic” value (angiogenesis) is on record?
**A.** The value was “Anti-angiogenic”.

**Q.** With “RRSRSSTGKKQKSSQSRKTA (Anti-adhesion (cell-cell))” as the substance, how does the “FUNCTIONAL ACTIVITY: Anti-adhesion (cell-cell)” value (cell-cell adhesion) read?
**A.** Its value is “Anti-adhesion (cell-cell)”.

**Q.** For “SDQDNNGKGSHES (Endothelial cell attachment.)”, which “FUNCTIONAL ACTIVITY: Endothelial cell attachment” value (Endothelial cell) is on record?
**A.** The value was “Endothelial cell attachment”.

**Q.** With “SDQDQDGDGHQDS (Endothelial cell attachment.)” as the substance, how does the “FUNCTIONAL ACTIVITY: Endothelial cell attachment” value (Endothelial cell) read?
**A.** Its value is “Endothelial cell attachment”.

**Q.** For “SDV: bioactive peptide isolated by minicell display (Inhibits alpha 4 integrin binding.)”, which “FUNCTIONAL ACTIVITY: Inhibits alpha4 integrin binding” value (alpha4 integrin) is on record?
**A.** Its value is “Inhibits alpha4 integrin”.

**Q.** Which “FUNCTIONAL ACTIVITY: Cell attachment/alphavbetax specific” value (alphavbetax) does the source give for “TPFIPTESANDGRGDSVAW (Cell attachment/ alpha v beta x specific.)” here?
**A.** The value was “Cell attachment/a1phavbetax”.

**Q.** For TPTVRGAAGSGNQN (Anti-angiogenic), which “FUNCTIONAL ACTIVITY: Anti-angiogenic” value (angiogenesis) is on record?
**A.** Its value is “Anti-angiogenic”.

**Q.** With “TPVVPTVDTYDGRGDSLAY (beta integrin binding.)” as the substance, how does the “FUNCTIONAL ACTIVITY: β integrin binding” value (β integrin) read?
**A.** The value was “β integrin binding”.

**Q.** With “WTGGDDSGSPSSPS (Inhibits alpha 4 integrin binding.)” as the substance, how does the “FUNCTIONAL ACTIVITY: Inhibits alpha4 integrin binding” value (alpha4 integrin) read?
**A.** The value was “Inhibits alpha4 integrin”.
